Data published in ChEMBL document CHEMBL4813934, “Investigation of Selected Flavonoid Derivatives as Potent FLT3 Inhibitors for the Potential Treatment of Acute Myeloid Leukemia” (J Nat Prod, 2021).
pIC50: −log10 of the molar value. Activity calls are given as the source filed them. The rule behind the calls is not given here.

Tests used:
[1] = molecular target: T1, Receptor-type tyrosine-protein kinase FLT3 (Homo sapiens, UniProt P36888); test: Inhibition of recombinant His-tagged human FLT3 (564 to 958 residues) expressed in baculovirus expression system using tyr 02 as substrate incubated for 1 hr by Z'-LYTE assay
T1 sequence (P36888 whole entry): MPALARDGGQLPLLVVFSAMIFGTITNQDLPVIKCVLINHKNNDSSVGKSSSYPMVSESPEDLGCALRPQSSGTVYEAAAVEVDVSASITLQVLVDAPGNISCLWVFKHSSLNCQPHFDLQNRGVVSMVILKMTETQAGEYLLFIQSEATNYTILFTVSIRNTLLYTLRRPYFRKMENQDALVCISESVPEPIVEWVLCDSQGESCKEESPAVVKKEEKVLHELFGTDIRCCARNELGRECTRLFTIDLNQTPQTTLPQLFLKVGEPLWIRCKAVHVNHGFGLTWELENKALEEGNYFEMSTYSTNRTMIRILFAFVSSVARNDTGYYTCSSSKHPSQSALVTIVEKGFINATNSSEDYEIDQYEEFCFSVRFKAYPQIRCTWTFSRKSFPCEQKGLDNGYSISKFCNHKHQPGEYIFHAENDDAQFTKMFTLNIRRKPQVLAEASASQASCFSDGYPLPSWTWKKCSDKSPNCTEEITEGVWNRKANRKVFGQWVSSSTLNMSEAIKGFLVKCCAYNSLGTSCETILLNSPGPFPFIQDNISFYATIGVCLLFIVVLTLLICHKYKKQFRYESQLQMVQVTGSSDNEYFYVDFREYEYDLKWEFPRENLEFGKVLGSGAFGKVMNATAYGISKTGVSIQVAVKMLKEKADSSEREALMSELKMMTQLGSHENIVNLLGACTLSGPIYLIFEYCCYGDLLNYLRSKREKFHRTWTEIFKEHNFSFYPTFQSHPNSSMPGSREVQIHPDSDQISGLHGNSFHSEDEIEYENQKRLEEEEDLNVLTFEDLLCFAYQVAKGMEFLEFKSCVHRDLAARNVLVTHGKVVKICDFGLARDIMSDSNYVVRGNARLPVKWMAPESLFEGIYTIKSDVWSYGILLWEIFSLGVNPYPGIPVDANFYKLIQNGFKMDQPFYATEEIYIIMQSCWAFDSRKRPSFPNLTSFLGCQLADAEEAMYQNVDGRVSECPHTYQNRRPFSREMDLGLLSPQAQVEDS

[2] = molecular target: Receptor-type tyrosine-protein kinase FLT3 (Homo sapiens) (UniProt P36888); test: Inhibition of recombinant His-tagged human FLT3 (564 to 958 residues) expressed in baculovirus expression system at 10 uM using tyr 02 as substrate incubated for 1 hr by Z'-LYTE assay relative to control
[3] = molecular target: Receptor-type tyrosine-protein kinase FLT3 (Homo sapiens, UniProt P36888, ITD); test: Inhibition of recombinant N-terminal GST/His6-tagged human FLT3 ITD mutant (571 to 993 residues) expressed in Sf9 insect cells incubated for 1 hr by LanthaScreen assay
[4] = molecular target: Receptor-type tyrosine-protein kinase FLT3 (Homo sapiens, UniProt P36888, D835Y); test: Inhibition of recombinant His-tagged human FLT3 D835Y mutant (564 to 958 residues) expressed in baculovirus expression system using tyr 02 as substrate incubated for 1 hr by Z'-LYTE assay
MOLM-13 [5] = test: Cytotoxicity against human MOLM-13 cells assessed as reduction in cell viability measured after 72 hrs by MTT assay; assay type: functional, cell-based; conditions: MOLM-13, 72 h
MV4-11 [6] = test: Cytotoxicity against human MV4-11 cells assessed as reduction in cell viability measured after 72 hrs by MTT assay; assay type: functional, cell-based; conditions: MV4-11, 72 h
MOLM-13 [7] = test: Cell cycle arrest in human MOLM-13 cells assessed as accumulation at G0/G1 phase at 0.3 to 3 uM measured after 72 hrs by propidium iodide/RNaseA staining based flow cytometry analysis; assay type: functional; conditions: dose 0.3-3 µM
MV4-11 [8] = test: Cell cycle arrest in human MV4-11 cells assessed as increase in accumulation at sub-G1 phase at 30 uM measured after 72 hrs by propidium iodide/RNaseA staining based flow cytometry analysis; assay type: functional

Row | SMILES | pIC50 [1] | inhibition [2] [%] | pIC50 [3] | pIC50 [4] | pIC50 (MOLM-13 [5]) | pIC50 (MV4-11 [6]) | Activity (MOLM-13 [7]) | Activity (MV4-11 [8])
1 | COc1ccc(-c2cc(=O)c3c(O)cc(O)cc3o2)cc1 [ACACETIN] | 6.06 | > 80 | 6.68 | 6.00 | 5.04 | 5.17 | – | –
2 | COc1c(O)cc2oc(-c3ccc(O)cc3)cc(=O)c2c1O [HISPIDULIN] | 6.36 | > 80 | 6.41 | 6.64 | 5.15 | 5.17 | Active | Active
3 | COc1ccc(-c2cc(=O)c3c(O)c(OC)c(OC)cc3o2)cc1O [EUPATORIN] | 5.96 | > 80 | – | – | – | – | – | –
